Here are results for three compounds from patent publication US20150080292A1 (priority 2013, published 2015).

For series [1] the following is noted: solvents in which the compound dissolves.
The test system of the next series is Fusarium oxysporum. The series can be described thus: Anti-fungus plate experiment (growth diameter on LB medium with drug). It counts as cell-based. The settings on record: LB plates, 28° C. As to the method:
(§1) The anti-fungi experiment, with 6 treatments of different drug concentration and three replicates each treatment and sterile water as blank check, was conducted by mixing Locillomycin-A, Locillomycin-B and Locillomycin-C separately into different plates containing LB medium and, then, inoculating pathogenic fungi in the center of the plates, followed by incubation at 28° C. to check the effectiveness of antifungal function. The criteria of the effectiveness were defined as the size of orthogonal cross diameter of the pathogen growth.

A further series concerns Rhizoctonia solani. The description is as above. It is filed as cell-based. The following applies: LB plates, 28° C. As to the method: as §1
For a further series, the system named is Fusarium graminearum. The following applies: LB plates, 28° C.

Molecules are shown by their SMILES. Converted amounts (≈) assume the structure as drawn. Where a SMILES comes first, the peptide text is derived from it. Bridges are numbered along the chain shown (N, C = ends). The star is where a group is joined. Pentadecanoyl = CCCCCCCCCCCCCCC(=O)*; Tridecanoyl = CCCCCCCCCCCCC(=O)*; Myristoyl = CCCCCCCCCCCCCC(=O)*

Usually IC50 stands for the concentration needed to halve the response being measured. The IC90 is the concentration at which the effect reaches the 90% level. A higher IC90 goes with a need for much substance. As for `CCCCCCCCCCCCC(=O)NC1C(=O)NC(CCC(N)=O)C(=O)NC(CC(=O)O)C(=O)NCC(=O)NC(CC(N)=O)C(=O)NC(CC(=O)O)C(=O)NCC(=O)NC(Cc2ccc(O)cc2)C(=O)NC(C(C)C)C(=O)OC1C` (stereo not drawn) [Locillomycin-A] (Tridecanoyl-TQDGNDGYV; ester 1-C; configuration not given here), the Solubility entry in series [1] is on record as “Methanol, Dimethyl”. Besides, the results for the IC50 in the series with Fusarium oxysporum, in the series with Rhizoctonia solani and in the series on Fusarium graminearum were 12.5 mg/L (≈ 10.9 µM), 15.5 mg/L (≈ 13.5 µM) and 25.4 mg/L (≈ 22.2 µM), respectively. The values for the IC90 with Fusarium oxysporum, with Rhizoctonia solani and in the series with Fusarium graminearum were 56.3 mg/L (≈ 49.1 µM), 45.9 mg/L (≈ 40 µM) and more than 100 mg/L, respectively.

For `CCCCCCCCCCCCCCC(=O)NC1C(=O)NC(CCC(N)=O)C(=O)NC(CC(=O)O)C(=O)NCC(=O)NC(CC(N)=O)C(=O)NC(CC(=O)O)C(=O)NCC(=O)NC(Cc2ccc(O)cc2)C(=O)NC(C(C)C)C(=O)OC1C` (stereo not drawn) [Locillomycin-C] (Pentadecanoyl-TQDGNDGYV; ester 1-C; configuration not given here), the Solubility entry in series [1] was “Methanol, Dimethyl”. Further, the 50% inhibitory concentration (IC50) is 10.3 mg/L (≈ 8.77 µM) in the series with Fusarium oxysporum, 12.4 mg/L (≈ 10.6 µM) with Rhizoctonia solani and 21.7 mg/L (≈ 18.5 µM) in the series on Fusarium graminearum. Further, the IC90 in the series with Fusarium oxysporum is 46.8 mg/L (≈ 39.9 µM); in the series on Rhizoctonia solani, 38.6 mg/L (≈ 32.9 µM); in the series with Fusarium graminearum it was more than 100 mg/L.

`CCCCCCCCCCCCCC(=O)NC1C(=O)NC(CCC(N)=O)C(=O)NC(CC(=O)O)C(=O)NCC(=O)NC(CC(N)=O)C(=O)NC(CC(=O)O)C(=O)NCC(=O)NC(Cc2ccc(O)cc2)C(=O)NC(C(C)C)C(=O)OC1C` (stereo not drawn) [Locillomycin-B] (Myristoyl-TQDGNDGYV; ester 1-C; configuration not given here): in series [1], the Solubility result is reported as “Methanol, Dimethyl”. Also, the values for the concentration for half-maximal inhibition (IC50) in the series on Fusarium oxysporum, in the series on Rhizoctonia solani and in the series with Fusarium graminearum were 11.6 mg/L (≈ 10 µM), 13.8 mg/L (≈ 11.9 µM) and 22.6 mg/L (≈ 19.5 µM), respectively. For the same compound, the IC90 in the series with Fusarium oxysporum was 48.9 mg/L (≈ 42.1 µM); with Rhizoctonia solani, 40.6 mg/L (≈ 35 µM); in the series on Fusarium graminearum, more than 100 mg/L.
